Test results as given in US7241763B2, “3-furanyl analogs of toxoflavine as kinase inhibitors” (priority 2002, dated 2007).

Key:
CDC25B = target: T1, CDC25B (Homo sapiens, UniProt P30305); assay: In vitro inhibition of CDC25B using the fluorogenic substrate 3-OMFP (CDC25B WT, Ex. C5); type: biochemical; details: 3-OMFP substrate, 1 hour room temperature; read-out: CDC25B WT (Ex. C5): pIC50 values (converted)
T1 sequence (P30305 1-580): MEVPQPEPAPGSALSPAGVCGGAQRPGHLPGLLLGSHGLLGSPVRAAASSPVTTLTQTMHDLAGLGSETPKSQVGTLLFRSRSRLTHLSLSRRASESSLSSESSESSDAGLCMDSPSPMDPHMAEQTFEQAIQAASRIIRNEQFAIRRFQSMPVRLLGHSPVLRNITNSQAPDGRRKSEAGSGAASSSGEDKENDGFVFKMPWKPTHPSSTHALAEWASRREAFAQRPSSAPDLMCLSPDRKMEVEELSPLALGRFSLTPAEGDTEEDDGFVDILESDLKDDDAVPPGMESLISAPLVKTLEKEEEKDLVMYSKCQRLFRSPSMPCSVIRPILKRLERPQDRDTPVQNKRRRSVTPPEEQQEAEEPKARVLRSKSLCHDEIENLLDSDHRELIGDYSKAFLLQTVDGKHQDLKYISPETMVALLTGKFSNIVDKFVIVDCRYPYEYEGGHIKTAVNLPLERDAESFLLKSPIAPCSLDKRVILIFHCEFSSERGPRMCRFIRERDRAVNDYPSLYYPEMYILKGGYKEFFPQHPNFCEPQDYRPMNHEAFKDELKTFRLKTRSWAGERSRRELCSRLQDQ
Protocol: In Vitro Inhibition of CDC25B using the Fluorogenic Substrate 3-OMFP
CDC25B phosphatase activity is assessed using the fluorogenic substrate 3-O-methyl-flurorescein-phosphate (3-OMFP). The phosphatase-reaction is performed for 1 hour at room temperature in a black microtiter plate in a volume of 50 μl. The reaction mixture contains 4 μg/mlCDC25B, 15 μM (3-OMFP), 15 mM Tris, 50 mM NaCl, 1 mM DTT, 1 mM Na2EDTA at pH 8.0 and 0.1% DMSO solution at 10^−5 M and the hits are tested in the same conditions in a full dose/response from 10^−5, 3.10^−6, 10^−6 and 3.10^−7 M. The enzymatic activity is determined by measuring the fluorescent signal at 485 nm (ex.) and 538 (em.).

AKT3 [1] = target: T2, AKT3 (Homo sapiens, UniProt Q9Y243); assay: Cellular inhibition of AKT3 using an ELISA (AKT cel, Ex. C6); type: cell-based; set-up: endogenous in cells; host or cells: MDA-MB 231; details: MDA-MB 231 cells, phosphorylated MAPK ELISA, 30 minutes with compound; read-out: AKT cel (Ex. C6): pIC50 values (converted)
Protocol: Cellular Inhibition of AKT3 using an ELISA
The human breast adenocarcinoma cell line (MDA-MB 231) was used in an phosphospecific antibody cell ELISA (PACE) to assess the inhibitory effect of the compounds on AKT3 mediated phosphorylation of mitogen-activated protein kinase (MAPK). In the experiments the MDA-MB 231 cells were serum starved for 24 hours (5% CO2; 37° C.). Subsequently, the cells are incubated at room temperature for 2 hours with 20 μM (in serum free medium) of the phosphatidylinositol 3-kinase inhibitor Ly294002 (Alexis, San Diego, Calif.) prior to the incubation for 30 minutes with the compounds at a final concentration ranging from 1 nM to 3 μM. After fixation (with 4.5% formaldehyde) for 20 minutes and washing with PBS (0.1M) the cells were successively incubated with for 5 minutes with 0.1% Triton X-100 in PBS, for 20 minutes with 0.6% H2O2 and 1 hour with a 2% BSA solution as blocking buffer. […] The OD (490–655 nm) reflected the amount of phosphorylated MAPK and the pIC50 of the compounds was based on their effect with respect to blanco (0.1% DMSO) or an internal reference compound treatment.

AKT3 [2] = target: T2, AKT3; assay: In vitro inhibition of AKT3 using a filter assay (AKT3 pep., Ex. C3); type: biochemical; details: histone H2B substrate, filter assay, 25° C. 3 hrs; read-out: AKT3 pep. (Ex. C3): pIC50 values (converted)
Protocol: In Vitro Inhibition of AKT3 using a Filter Assay
In the present AKT3 filter assay, a kinase substrate consisting of a fragment of histone H2B, is incubated with the aforementioned protein in the presence of (^33P) radiolabeled ATP. The (^33P)phosporylated substrate binds to a phosphocellulose cation exchange filter, that can easily be removed from the incubation mixture and counted using a microplate scintillation counter.
AKT3 filter assays were performed at 25° C. for 3 hrs in the presence of 25 mM Hepes, pH 7.0, containing 15 mM MgCl2, 1 mM DTT Each assay was performed in a 100 μl reaction volume containing 111 nM AKT3 (diluted in 25 mM Hepes, pH 7.0, containing 15 mM MgCl2, 1 mM DTT) and the 2.5 μM Histone H2B and 2 nM ATP-P^32. The reaction was terminated by addition of 100 μl 75 mM H3PO4, 90 μl of the assay mixture was filtered through Phosphocellulose cation exchange paper. After five times washing with […] H3PO4, the filterpaper was counting in a microtiterplate scintillation counter.

A2780 cell = assay: Cytotox/survival of A2780 cell after 3 days; type: cell-based; details: Homo sapiens, 72 h; A2780 ovarian carcinoma cell line, 3 days; read-out: Cytotox/survival of A2780 cell after 3 days - pIC50 values (converted)
Protocol: In an alternative assay, the growth inhibitory effect of the compounds was tested on the ovarian carcinoma cell line A2780 using art known cytotoxicity assays such as LIVE/DEAD (Molecular Probes) or MTT.

cdk4 = cdk4 (Homo sapiens, UniProt P11802); assay: In vitro inhibition of cdk4 using a scintillant proximity assay (CDK4 SPA, Ex. C1); type: biochemical; details: GST-pRb substrate, 33P-ATP, room temperature 30 minutes; read-out: CDK4 SPA (Ex. C1): pIC50 values (converted)
Protocol: In Vitro Inhibition of cdk4 using a Scintillant Proximity Assay
The scintillant proximity assay (SPA) is in general described in U.S. Pat. No. 4,568,649 (Amersham Pharmacia Biotech). In the present cdk4 SPA kinase reaction assay, a kinase substrate consisting of a fragment of the restinoblastoma protein (pRb) tagged with […] (GST), is incubated with the aforementioned protein in the presence of (^33P) radiolabeled ATP. (^33P) phosporylation of the substrate is subsequently measured as light energy emitted using glutathione-coated SPA beads (Amersham Pharmacia Biotech) by trapping and quantifying the binding of the GST tagged and radiolabeled restinoblastoma protein.
The CDK4 SPA kinase reaction is performed at room temperature for 30 minutes in a 96-well microtiter plate. For each of the tested compounds a full dose response —10^−5M to 3.10^−9M—has been performed. Flavopiridol was used as reference compound. The 100 μl reaction volume contains 50 mM Hepes, 10 mM NaF, 10 mM MgCl2, 1 mM Na3VO4 pH 7.5, 1.5 μg CDK4-cell lysate/well, 0.2 μM unlabeled ATP, 1.7 μg/well GST-pRb, 1.7 nM AT^33P and 1 μl of a DMSO solution. The reaction is stopped by diluting the reaction mixture ½ with 0.1 mM Na2EDTA, 0.1 mM non-labeled ATP, 0.05% Triton-X-100 and 10 mg/ml glutathion coated beads in PBS. The microtiterplates are centrifuges at 900 rpm for 10 minutes and the amount of phosphorylated (^33P) pRb is determined by counting (1 min/well) in a microtiterplate scintillation counter.

T2 sequence (Q9Y243 whole entry): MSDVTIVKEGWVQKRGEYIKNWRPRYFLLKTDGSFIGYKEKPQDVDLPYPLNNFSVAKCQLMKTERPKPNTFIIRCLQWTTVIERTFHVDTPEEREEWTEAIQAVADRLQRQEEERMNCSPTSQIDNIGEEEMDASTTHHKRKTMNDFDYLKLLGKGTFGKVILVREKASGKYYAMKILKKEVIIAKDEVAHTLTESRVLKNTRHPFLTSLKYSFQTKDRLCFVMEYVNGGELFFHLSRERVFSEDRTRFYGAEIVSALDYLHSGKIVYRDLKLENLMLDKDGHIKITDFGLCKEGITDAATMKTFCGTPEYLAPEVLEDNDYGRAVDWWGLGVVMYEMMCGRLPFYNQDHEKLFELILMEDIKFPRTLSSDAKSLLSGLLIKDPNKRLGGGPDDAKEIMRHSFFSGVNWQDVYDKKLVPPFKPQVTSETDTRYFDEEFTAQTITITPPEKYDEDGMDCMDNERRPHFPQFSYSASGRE
Chain of cdk4 (P11802 whole entry): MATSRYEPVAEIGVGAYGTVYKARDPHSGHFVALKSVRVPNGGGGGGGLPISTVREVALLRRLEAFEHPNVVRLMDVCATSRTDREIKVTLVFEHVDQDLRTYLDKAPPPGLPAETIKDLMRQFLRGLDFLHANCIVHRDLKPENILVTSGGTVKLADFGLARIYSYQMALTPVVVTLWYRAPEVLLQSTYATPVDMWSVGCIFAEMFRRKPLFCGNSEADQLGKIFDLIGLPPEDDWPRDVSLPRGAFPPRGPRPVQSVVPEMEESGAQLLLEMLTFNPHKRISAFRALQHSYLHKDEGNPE
Chain of cdk4 (P24385 whole entry partner): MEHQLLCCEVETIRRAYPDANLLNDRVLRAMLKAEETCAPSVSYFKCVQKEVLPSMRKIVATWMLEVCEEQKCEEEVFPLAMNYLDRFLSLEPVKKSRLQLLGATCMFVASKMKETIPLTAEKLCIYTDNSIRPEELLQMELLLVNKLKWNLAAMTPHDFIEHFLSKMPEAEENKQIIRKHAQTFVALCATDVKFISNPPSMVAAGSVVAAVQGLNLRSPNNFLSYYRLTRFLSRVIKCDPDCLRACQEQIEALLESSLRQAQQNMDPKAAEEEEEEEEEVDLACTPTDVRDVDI

Compound	melting point	IC50 (CDC25B)	IC50 (AKT3 [1])	IC50 (AKT3 [2])	IC50 (A2780 cell)	IC50 (cdk4)
Cn1nc(-c2ccc(-c3cccc(Cl)c3)o2)nc2c(=O)n(C3CCN(Cc4ccccc4)CC3)c(=O)nc1-2	210.4 to 241 °C					
Cn1nc(-c2ccc(-c3ccc(S(=O)(=O)N4CCOCC4)cc3)o2)nc2c(=O)n(C)c(=O)nc1-2	264.3 to 273.4 °C					
Cn1nc(-c2ccc(-c3cccc(CN4CCOCC4)c3)o2)nc2c(=O)n(C)c(=O)nc1-2 [Compound 1]	209.3 to 219.8 °C	< 1 nM	62.1 nM	32.1 nM	61.9 nM	
Cn1nc(-c2ccc(-c3cccc(CNS(C)(=O)=O)c3)o2)nc2c(=O)n(C)c(=O)nc1-2 [Compound 2]	215.1 to 236.6 °C	20.8 nM	209 nM	72.6 nM	490 nM	
Cn1c(=O)nc2n(C3CCCC3)nc(-c3ccc(-c4ccc(CO)cc4)o3)nc-2c1=O [Compound 31]	182 °C	13.8 nM	277 nM	44.3 nM	74 nM	137 nM
Cn1c(=O)nc2n(C3CCCC3)nc(-c3ccc(-c4ccc(CN5CCC(N)CC5)cc4)o3)nc-2c1=O [Compound 37]			34.4 nM	51.8 nM	67.5 nM	
CC(c1ccccc1)n1nc(-c2ccc(-c3cccc(Cl)c3)o2)nc2c(=O)n(C)c(=O)nc1-2 (stereo not shown) [Compound 67]		21.3 nM	716 nM	161 nM	196 nM	
CC(C)n1nc(-c2ccc(-c3ccc(CN4CCOCC4)cc3)o2)nc2c(=O)n(C)c(=O)nc1-2 [Compound 78]		11.3 nM	139 nM	57.9 nM	79.8 nM	
CC(C)n1nc(-c2ccc(-c3ccc(CN(C)CCO)cc3)o2)nc2c(=O)n(C)c(=O)nc1-2 [Compound 87]	229 °C	24.3 nM	35.2 nM	72.9 nM	61.4 nM	80.7 nM
Cn1c(=O)nc2n(C3CCCC3)nc(-c3ccc(-c4ccc(S(=O)(=O)N5CCOCC5)cc4)o3)nc-2c1=O [Compound 93]	> 250 °C	11 nM	471 nM	53.6 nM	52.8 nM	
